Experimental data taken from patent publication US10160724B2, “Tetrahydropyridine derivatives and their use as antibacterial agents” (Dong-A St Co., Ltd., priority 2016, dated 2018).
Converted amounts (≈) assume the structure as drawn. Where two headings read alike, the source gives them in different places.

Experiments:
Assay in all cases: In vitro antibiotic activity, agar dilution method (Mueller-Hinton agar, NCCLS)
Type in all cases: cell-based
E. coli ATCC 25922 = conditions: Escherichia coli
Method: (§1) To measure the antibiotic activity of the compounds prepared by Examples, antibiotic activity test in vitro was performed by agar dilution method using Mueller-Hinton agar according to the NCCLS (National Committee for Clinical Laboratory Standards. 2000. Methods for dilution antimicrobial susceptibility tests for bacteria that grow aerobiocally. Approved standard, NCCLS document M7-M5, 5th ed, vol 20, no 2. National Committee for Clinical Laboratory Standards, Wayne, Pa.). The test strain was Escherichia coli (ATCC 25922), Klebsiella pneumonia (ATCC 29665) and Pseudomonas aeriginosa (PAO1).

K. pneumoniae ATCC 29665 = conditions: Klebsiella pneumoniae
Method: as §1

P. aeruginosa PAO1 = conditions: Pseudomonas aeruginosa
Method: as §1

[1] = ATCC25922, agar dilution, Mueller-Hinton agar, read-out: MIC for E. coli ATCC 25922
[2] = ATCC29665, agar dilution, Mueller-Hinton agar, read-out: MIC for K. pneumoniae ATCC 29665
[3] = PAO1, agar dilution, Mueller-Hinton agar, read-out: MIC for P. aeruginosa PAO1

SMILES	MIC (E. coli ATCC 25922; ATCC25922, read-out: MIC for E. coli ATCC 25922) [µg/mL]	MIC (K. pneumoniae ATCC 29665; ATCC29665, read-out: MIC for K. pneumoniae ATCC 29665) [µg/mL]	MIC (P. aeruginosa PAO1; PAO1, read-out: MIC for P. aeruginosa PAO1) [µg/mL]	MIC (E. coli ATCC 25922; [1]) [µg/mL]	MIC (K. pneumoniae ATCC 29665; [2]) [µg/mL]	MIC (P. aeruginosa PAO1; [3]) [µg/mL]
CN(C)c1ccc(C#Cc2ccc(C3=CCN(CCC(C)(C(=O)NO)S(C)(=O)=O)CC3)cc2)cc1 (stereo not drawn) [Example 1, 4-(4-(4-((4-(dimethylamino)phenyl)ethynyl)phenyl)-3,6-dihydropyridin-1(2H)-yl)-N-hydroxy-2-methyl-2-(methylsulfonyl)butanamide]	> 16	> 16	> 16			
CC(CCN1CC=C(c2ccc(C#Cc3ccccc3)cc2)CC1)(C(=O)NO)S(C)(=O)=O (stereo not drawn) [Example 2, N-hydroxy-2-methyl-2-(methylsulfonyl)-4-(4-(4-(phenylethynyl)phenyl)-3,6-dihydropyridin-1(2H)-yl)butanamide]				< 1	1 to 8 (≈ 2.21 to 17.7 µM)	1 to 8 (≈ 2.21 to 17.7 µM)
COc1ccc(C#Cc2ccc(C3=CCN(CCC(C)(C(=O)NO)S(C)(=O)=O)CC3)cc2)cc1 (stereo not drawn) [Example 3, N-hydroxy-4-(4-(4-((4-methoxyphenyl)ethynyl)phenyl)-3,6-dihydropyridin-1(2H)-yl)-2-methyl-2-(methylsulfonyl)butanamide]				> 16	1 to 8 (≈ 2.07 to 16.6 µM)	> 16
CC(CCN1CC=C(c2ccc(C#CC3CC3)cc2)CC1)(C(=O)NO)S(C)(=O)=O (stereo not drawn) [Example 4, 4-(4-(4-(cyclopropylethynyl)phenyl)-3,6-dihydropyridin-1(2H)-yl)-N-hydroxy-2-methyl-2-(methylsulfonyl)butanamide]				< 1	< 1	1 to 8 (≈ 2.4 to 19.2 µM)
CC(CCN1CC=C(c2ccc(C#CCCO)cc2)CC1)(C(=O)NO)S(C)(=O)=O (stereo not drawn) [Example 5, N-hydroxy-4-(4-(4-(4-hydroxybut-1-yn-1-yl)phenyl)-3,6-dihydropyridin-1(2H)-yl)-2-methyl-2-(methylsulfonyl)butanamide]				1 to 8 (≈ 2.38 to 19 µM)	8 to 16 (≈ 19 to 38 µM)	1 to 8 (≈ 2.38 to 19 µM)
CCCCC#Cc1ccc(C2=CCN(CCC(C)(C(=O)NO)S(C)(=O)=O)CC2)cc1 (stereo not drawn) [Example 6, 4-(4-(4-(hex-1-yn-1-yl)phenyl)-3,6-dihydropyridin-1(2H)-yl)-N-hydroxy-2-methyl-2-(methylsulfonyl)butanamide]				< 1	1 to 8 (≈ 2.31 to 18.5 µM)	8 to 16 (≈ 18.5 to 37 µM)
CN(C)CC#Cc1ccc(C2=CCN(CCC(C)(C(=O)NO)S(C)(=O)=O)CC2)cc1 (stereo not drawn) [Example 7, 4-(4-(4-(3-(dimethylamino)prop-1-yn-1-yl)phenyl)-3,6-dihydropyridin-1(2H)-yl)-N-hydroxy-2-methyl-2-(methylsulfonyl)butanamide]				1 to 8 (≈ 2.31 to 18.5 µM)	1 to 8 (≈ 2.31 to 18.5 µM)	1 to 8 (≈ 2.31 to 18.5 µM)
CC(O)C#Cc1ccc(C2=CCN(CCC(C)(C(=O)NO)S(C)(=O)=O)CC2)cc1 (stereo not drawn) [Example 8, N-hydroxy-4-(4-(4-(3-hydroxybut-1-yn-1-yl)phenyl)-3,6-dihydropyridin-1(2H)-yl)-2-methyl-2-(methylsulfonyl)butanamide]				> 16	> 16	> 16
CC(CCN1CC=C(c2ccc(C#CC3CCCC3)cc2)CC1)(C(=O)NO)S(C)(=O)=O (stereo not drawn) [Example 9, 4-(4-(4-(cyclopentylethynyl)phenyl)-3,6-dihydropyridin-1(2H)-yl)-N-hydroxy-2-methyl-2-(methylsulfonyl)butanamide]				< 1	1 to 8 (≈ 2.25 to 18 µM)	> 16
CC(CCN1CC=C(c2ccc(C#CC3CCCCC3)cc2)CC1)(C(=O)NO)S(C)(=O)=O (stereo not drawn) [Example 10, 4-(4-(4-(cyclohexylethynyl)phenyl)-3,6-dihydropyridin-1(2H)-yl)-N-hydroxy-2-methyl-2-(methylsulfonyl)butanamide]				1 to 8 (≈ 2.18 to 17.4 µM)	8 to 16 (≈ 17.4 to 34.9 µM)	8 to 16 (≈ 17.4 to 34.9 µM)
CCCC#Cc1ccc(C2=CCN(CCC(C)(C(=O)NO)S(C)(=O)=O)CC2)cc1 (stereo not drawn) [Example 11, N-hydroxy-2-methyl-2-(methylsulfonyl)-4-(4-(4-(pent-1-yn-1-yl)phenyl)-3,6-dihydropyridin-1(2H)-yl)butanamide]				< 1	1 to 8 (≈ 2.39 to 19.1 µM)	1 to 8 (≈ 2.39 to 19.1 µM)
CC(CCN1CC=C(c2ccc(C#CCC3CCCCC3)cc2)CC1)(C(=O)NO)S(C)(=O)=O (stereo not drawn) [Example 12, 4-(4-(4-(3-cyclohexylprop-1-yn-1-yl)phenyl)-3,6-dihydropyridin-1(2H)-yl)-N-hydroxy-2-methyl-2-(methylsulfonyl)butanamide]				8 to 16 (≈ 16.9 to 33.9 µM)	8 to 16 (≈ 16.9 to 33.9 µM)	> 16
CC(C)CC#Cc1ccc(C2=CCN(CCC(C)(C(=O)NO)S(C)(=O)=O)CC2)cc1 (stereo not drawn) [Example 13, N-hydroxy-2-methyl-4-(4-(4-(4-methylpent-1-yn-1-yl)phenyl)-3,6-dihydropyridin-1(2H)-yl)-2-(methylsulfonyl)butanamide]				< 1	1 to 8 (≈ 2.31 to 18.5 µM)	8 to 16 (≈ 18.5 to 37 µM)
CC(CCN1CC=C(c2ccc(C#CCCCCl)cc2)CC1)(C(=O)NO)S(C)(=O)=O (stereo not drawn) [Example 14, 4-(4-(4-(5-chloropent-1-yn-1-yl)phenyl)-3,6-dihydropyridin-1(2H)-yl)-N-hydroxy-2-methyl-2-(methylsulfonyl)butanamide]				< 1	1 to 8 (≈ 2.21 to 17.7 µM)	1 to 8 (≈ 2.21 to 17.7 µM)
CC(CCN1CC=C(c2ccc(C#CCN3CCCC3)cc2)CC1)(C(=O)NO)S(C)(=O)=O (stereo not drawn) [Example 15, N-hydroxy-2-methyl-2-(methylsulfonyl)-4-(4-(4-(3-(pyrrolidin-1-yl)prop-1-yn-1-yl)phenyl)-3,6-dihydropyridin-1(2H)-yl)butanamide]				1 to 8 (≈ 2.18 to 17.4 µM)	8 to 16 (≈ 17.4 to 34.8 µM)	1 to 8 (≈ 2.18 to 17.4 µM)
CCN(CC)CC#Cc1ccc(C2=CCN(CCC(C)(C(=O)NO)S(C)(=O)=O)CC2)cc1 (stereo not drawn) [Example 16, 4-(4-(4-(3-(diethylamino)prop-1-yn-1-yl)phenyl)-3,6-dihydropyridin-1(2H)-yl)-N-hydroxy-2-methyl-2-(methylsulfonyl)butanamide]				1 to 8 (≈ 2.17 to 17.3 µM)	1 to 8 (≈ 2.17 to 17.3 µM)	1 to 8 (≈ 2.17 to 17.3 µM)
CC(CCN1CC=C(c2ccc(C#CCN3CCC[C@H]3CO)cc2)CC1)(C(=O)NO)S(C)(=O)=O (stereo partly drawn) [Example 17, N-hydroxy-4-(4-(4-(3-((S)-2-(hydroxymethyl)pyrrolidin-1-yl)prop-1-yn-1-yl)phenyl)-3,6-dihydropyridin-1(2H)-yl)-2-methyl-2-(methylsulfonyl)butanamide]				> 16	8 to 16 (≈ 16.3 to 32.7 µM)	1 to 8 (≈ 2.04 to 16.3 µM)
CC(CCN1CC=C(c2ccc(C#CCCCO)cc2)CC1)(C(=O)NO)S(C)(=O)=O (stereo not drawn) [Example 18, N-hydroxy-4-(4-(4-(5-hydroxypent-1-yn-1-yl)phenyl)-3,6-dihydropyridin-1(2H)-yl)-2-methyl-2-(methylsulfonyl)butanamide]				< 1	1 to 8 (≈ 2.3 to 18.4 µM)	1 to 8 (≈ 2.3 to 18.4 µM)
CC(CCN1CC=C(c2ccc(C#CCCCOS(C)(=O)=O)cc2)CC1)(C(=O)NO)S(C)(=O)=O (stereo not drawn) [Example 19, 5-(4-(1-(4-(hydroxyamino)-3-methyl-3-(methylsulfonyl)-4-oxobutyl)-1,2,3,6-tetrahydropyridin-4-yl)phenyl)pent-4-yn-1-yl methanesulfonate]				< 1	1 to 8	1 to 8
CN(C)CCCC#Cc1ccc(C2=CCN(CCC(C)(C(=O)NO)S(C)(=O)=O)CC2)cc1 (stereo not drawn) [Example 20, 4-(4-(4-(5-(dimethylamino)pent-1-yn-1-yl)phenyl)-3,6-dihydropyridin-1(2H)-yl)-N-hydroxy-2-methyl-2-(methylsulfonyl)butanamide]				1 to 8 (≈ 2.17 to 17.3 µM)	8 to 16 (≈ 17.3 to 34.7 µM)	8 to 16 (≈ 17.3 to 34.7 µM)
